Series [1] in a line: solubility of precursor in reaction / organic solvents. The series is classed as physicochemical. On the procedure: The uncorrected radiochemical yield (RCY) of [^18F]T807 was 14±3% (n=3) and the total synthesis time was 60 minutes, including formulation. The product was prepared consistently with >95% radiochemical purity and the specific activity at the end of synthesis was 216±60 GBq/μmol (5837±1621 mCi/μmol). […] Therefore, the precursor could be added remotely to the reaction vial with minimal volume and eliminated the possibility of the precursor precipitating out of solution before use. Moreover, the fluorination condition simultaneously removed the t-BOC protecting group so there was no need for an additional deprotection step. Secondly, without being bound by any theory, it is thought that the protecting group may also be responsible for the higher radiochemical yields by inhibiting side reactions with the —NH of the indole moiety.

Series [2] is described as follows: lipophilicity of precursor (HPLC analysis remark). Type of series: physicochemical. Conditions: qualitative. The procedure: (§1) Three consecutive productions of [^18F]T807 were carried out to validate this radiopharmaceutical for human use. […] Due to the increased lipophilicity of 1b, an additional HPLC analysis was performed using an X-Select HSS T3 column (4.6×150 mm, 3.5 μm) and eluted with 50% CH3OH/H2O (pH 2 adjusted with HCl) with a flow rate of 1.2 mL/min, monitored at λ=254 nm. Radio-TLC was performed to verify the radiochemical purity of [^18F]T807 using silica gel plates and 80:20 (v/v) CH2Cl2:CH3OH mobile phase. Radio-TLC confirmed high radiochemical purity (>97%). […] The half-life was verified to be 109.7 minutes, as determined by a dose calibrator, and no long lived isotopes were observed (5 days), as determined by analysis on a HPGE detector after ^18F-decay. Formulated [^18F]T807 was free of pyrogens (Charles River Endosafe® PTS), sterile, and passed the Kryptofix® spot test (<50 μg/mL). […] Using this new methodology, [^18F]T807 was successfully validated for human PET studies, meeting all FDA and USP requirements for a PET radiopharmaceutical.

The subject of series [3] is hyperphosphorylated tau fibrillar aggregates. To be noted: PET imaging, human subjects; cited from earlier work.
The nature of series [4]: stability of formulated product by HPLC and radio-TLC, clarity and pH. Type of series: physicochemical. Conditions: over a period of 6 hours. On the procedure: as §1
In series [5] the test system is paired helical filaments of tau (PHF-tau). Conditions: cited from earlier work.

Turning to `O=[N+]([O-])c1ccc(-c2ccc3c(c2)[nH]c2ccncc23)cn1` [Compound 1a, 7-(6-nitropyridin-3-yl)-5H-pyrido[4,3-b]indole, reference compound], in series [1], the “solubility in most organic solvents” value is given as “only sparingly soluble”.

With `CC(C)(C)OC(=O)n1c2ccncc2c2ccc(-c3ccc([N+](=O)[O-])nc3)cc21` [Compound 1b, tert-butyl 7-(6-nitropyridin-3-yl)-5H-pyrido[4,3-b]indole-5-carboxylate], in series [1] (compared with 1a), the “solubility in the reaction solvent (DMSO)” value is given as “increased”. For the same compound, the lipophilicity result in series [2] is reported as “increased”.

As for `CC(=C(C#N)C#N)c1ccc2cc(N(C)CCF)ccc2c1` [[^18F]FDDNP], in series [3], the “distinction between amyloid-β plaques and tau” value is “does not distinguish”; the “imaging of hyperphosphorylated tau fibrillar aggregates” value is given as “effective”.

As for `[18F]c1ccc(-c2ccc3c(c2)[nH]c2ccncc23)cn1` [[^18F]T807], in series [4], the pH is reported as 5.5; the “stability as measured by HPLC and radio-TLC” value is on record as “maintained stability”. In series [5], the “potency in vitro for paired helical filaments of tau (PHF-tau)” value was “excellent” and the “selectivity in vitro for PHF-tau over Aβ-plaques” value was “excellent”.

Turning to `[18F]CCC1CCN(c2ccn3c(n2)nc2ccccc23)CC1` [[^18F]T808, reference compound], in series [5], the “potency in vitro for paired helical filaments of tau (PHF-tau)” value is “excellent” and the “selectivity in vitro for PHF-tau over Aβ-plaques” value is given as “excellent”.

Source of the values: US9546167B2, “Radiosynthesis of tau radiopharmaceuticals” (The General Hospital Corporation, priority 2013, dated 2017).
